Article PMC11714206, “Massively Parallel Screening of Toll/Interleukin‐1 Receptor (TIR)‐Derived Peptides Reveals Multiple Toll‐Like Receptors (TLRs)‐Targeting Immunomodulatory Peptides” (Advanced Science, 2024)

Molecular target: T1, MAL^TIR (Homo sapiens, UniProt P58753)
T1 construct: MAL (residues 79–221); 6xHis; made in house; host or cells: E. coli BL21 (DE3)
Assay: T‐Surf phage library (P8 and P3) selection against MAL^TIR, four rounds, NGS read counts
Format: binding
Details: for P3_MAL Rank (after) / P3_MAL Rank (before): P3 library; for P8_MAL Rank (after) / P8_MAL Rank (before): P8 library
Outline: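 Library of 190 946 TIR‐derived peptides on P8 or P3 was panned on immobilized TIR domain coated at 5 µg mL^−1, BSA‐blocked, 1 h binding at RT, PBS/0.5% Tween‐20 washes, HCl elution, TG1 amplification. Fourth‐round pools were PCR‐barcoded, sequenced (100 bp paired‐end, Phred ≥30), and peptides ranked by read counts.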

[1] = P8_MAL: rank by count after grouping
[2] = P8_MAL: rank by count before grouping
[3] = 4R selection against MAL, rank after grouping
[4] = 4R selection against MAL, rank before grouping
[5] = selection against MAL, rank after grouping
[6] = selection against MAL, rank before grouping
[7] = selection against MAL TIR, rank by count after grouping
[8] = selection against MAL TIR, rank by count before grouping
[9] = selection against MAL, rank by count after grouping
[10] = selection against MAL, rank by count before grouping
[11] = P3_MAL: rank by count after grouping
[12] = P3_MAL: rank by count before grouping

T1 sequence (P58753 79-221): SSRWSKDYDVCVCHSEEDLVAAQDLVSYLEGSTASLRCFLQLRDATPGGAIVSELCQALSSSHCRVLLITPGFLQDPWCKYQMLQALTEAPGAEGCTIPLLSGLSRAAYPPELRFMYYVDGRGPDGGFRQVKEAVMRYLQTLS

PQDLEWFYERLVSLIL
Rank (after) [1]: 423
Rank (before) [2]: 2328

PSEIRKQTGSLPKAFA
P3_MAL Rank (after) [3]: 579
P3_MAL Rank (before) [4]: 2665

PVAHEISKKMQLFATI
P3_MAL Rank (after) [3]: 654
P3_MAL Rank (before) [4]: 2631

PYLRTQVLNYLMRTKN
P3_MAL Rank (after) [5]: 499
P3_MAL Rank (before) [6]: 2630

QFFWDQLKSILGDTRF
P8_MAL Rank (after) [5]: 519
P8_MAL Rank (before) [6]: 2433

QLIQHWIELHQHQLHL
P8_MAL Rank (after) [3]: 630
P8_MAL Rank (before) [4]: 2348

QLIQPWMELHLHQLHL
P8_MAL Rank (after) [7]: 246
P8_MAL Rank (before) [8]: 2346

QLIQQLIELHLDQLHL
P8_MAL Rank (after) [3]: 653
P8_MAL Rank (before) [4]: 2349

QLIQQWIELHAPAAS
Rank (after) [1]: 151
Rank (before) [2]: 969

QLIQQWIELQLRQLHL
P8_MAL Rank (after) [3]: 584
P8_MAL Rank (before) [4]: 2356

QLIQQWMNCTCTSCI
Rank (after) [1]: 167
Rank (before) [2]: 2379

QLIQQWSELHLHQLQL
Rank (after) [1]: 443
Rank (before) [2]: 2381

QLIQQWSELHLLQLHL
P8_MAL Rank (after) [3]: 621
P8_MAL Rank (before) [4]: 2387

RAFSSHLRHHLLAKDQ
P3_MAL Rank (after) [9]: 678
P3_MAL Rank (before) [10]: 2463

RAFVADLDEALKQRAL
Rank (after) [11]: 182
Rank (before) [12]: 2432

RAFVAHLYEALKKRAN
P3_MAL Rank (after) [5]: 547
P3_MAL Rank (before) [6]: 2451

RAFVAHPQELIQKKQQ
P3_MAL Rank (after) [9]: 739
P3_MAL Rank (before) [10]: 2454

RDFVAYLCQALANKGI
P8_MAL Rank (after) [3]: 626
P8_MAL Rank (before) [4]: 2172

RDFVAYLFQALANKGL
P8_MAL Rank (after) [3]: 640
P8_MAL Rank (before) [4]: 2171

REFIKKIILWMNPKIV
Rank (after) [1]: 109
Rank (before) [2]: 2531

RFFLESLKQLLRSDGR
Rank (after) [1]: 455
Rank (before) [2]: 2301

RFFQNKMRYHLQQLQH
P3_MAL Rank (after) [5]: 487
P3_MAL Rank (before) [6]: 2617

RFMMKFRTELDRGNGG
P8_MAL Rank (after) [5]: 489
P8_MAL Rank (before) [6]: 2304

RFWERLRYMMPDSSL
Rank (after) [11]: 449
Rank (before) [12]: 2320

RFWERPRYLTPSNNHR
P3_MAL Rank (after) [9]: 769
P3_MAL Rank (before) [10]: 2322

RFYEAQLILVLRNTKM
P8_MAL Rank (after) [3]: 672
P8_MAL Rank (before) [4]: 2302

RGCLSHLRHHLHAKEH
P3_MAL Rank (after) [3]: 590
P3_MAL Rank (before) [4]: 2423

RGFLAICVIICRRKI
Rank (after) [11]: 390
Rank (before) [12]: 2406

RGFLCHLRHHLQATDH
P3_MAL Rank (after) [9]: 706
P3_MAL Rank (before) [10]: 2352

RGFLEPLRHHLQAKEQ
P3_MAL Rank (after) [3]: 649
P3_MAL Rank (before) [4]: 2355

RGFLNHLHHHLQPNDH
P3_MAL Rank (after) [9]: 703
P3_MAL Rank (before) [10]: 2351

RGFLNQLRQHLHAKDH
P3_MAL Rank (after) [5]: 548
P3_MAL Rank (before) [6]: 2403

RGFLSHLHHALRLNKIEAF
P3_MAL Rank (after) [9]: 747
P3_MAL Rank (before) [10]: 2390

RGFLSHLHRYLVQRGV
Rank (after) [11]: 109
Rank (before) [12]: 250

RGFLSHLLLHLQAKDH
Rank (after) [11]: 395
Rank (before) [12]: 2364

RGFLSHLRHHLPAKDQ
P3_MAL Rank (after) [5]: 498
P3_MAL Rank (before) [6]: 2380

RGFLSHLRHHLPAKEH
P3_MAL Rank (after) [7]: 275
P3_MAL Rank (before) [8]: 2395

RGFLSHLRHHLQAIDH
Population (P3_MAL pool: P3 T-Surf phage library, 4th round of selection against MAL TIR, share of NGS reads): 0.00488%

RGFLSHLRHHLQAKD
P3_MAL Rank (after) [3]: 648
P3_MAL Rank (before) [4]: 2376

RGFLSHLRHHLQEQDH
P3_MAL Rank (after) [7]: 256
P3_MAL Rank (before) [8]: 2378

RGFLSHLRHHLQVKEQ
P3_MAL Rank (after) [9]: 733
P3_MAL Rank (before) [10]: 2370

RGFLSHLRHLLQAKDP
P3_MAL Rank (after) [7]: 193
P3_MAL Rank (before) [8]: 2405

RGFLSHLRHPVHPKDH
P3_MAL Rank (after) [3]: 615
P3_MAL Rank (before) [4]: 2367

RGFLSHLRHYLQAKAH
P3_MAL Rank (after) [5]: 552
P3_MAL Rank (before) [6]: 2430

RGFLSHLRNHLQAKDP
P3_MAL Rank (after) [7]: 210
P3_MAL Rank (before) [8]: 2408

RGFLSHLRQHLKAKDH
P3_MAL Rank (after) [5]: 497
P3_MAL Rank (before) [6]: 2386

RGFLSHLRYHLPAPQH
Rank (after) [11]: 129
Rank (before) [12]: 333

RGFLSHLSHPLQAKDP
P3_MAL Rank (after) [3]: 585
P3_MAL Rank (before) [4]: 2391

RGFLSHLSNLLQAKDH
P3_MAL Rank (after) [7]: 205
P3_MAL Rank (before) [8]: 2392

RGFLSHLYQGLKNRGI
Rank (after) [11]: 423
Rank (before) [12]: 2362

RGFLSHMRHPLQAKDH
P3_MAL Rank (after) [7]: 281
P3_MAL Rank (before) [8]: 2398
